Results taken from US20230339970A1, “CASEIN KINASE 1 DELTA MODULATORS” (priority 2020, published 2023).

What was measured:
[1] = target: T1, human recombinant GST cleaved CSNK1D (Homo sapiens, UniProt P48730); assay: Purified Enzyme Assay (ADP-Glo CSNK1D Kinase Assay); type: biochemical; conditions: 2 nM CSNK1D; peptide substrate 150 μM; ATP 20 μM; 45 minutes at room temperature
T1 construct: GST (cleaved yes); purchased University of Dundee clone DU 19064
Outline: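 Percent activity derived from ADP-Glo quantification of ADP produced. Reactions: compound dose-response with human recombinant GST-cleaved CSNK1D, ATP and substrate peptide PLSRTL-pS-VASLPGL, incubated 45 min at room temperature.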

human CSNK1D = target: T2, human CSNK1D (Homo sapiens, UniProt P48730); assay: Whole Cell nBRET CSNK1D Binding Assay; conditions: living CHO cells stably expressing human CSNK1D tagged with nanoluciferase; NanoBret tracer 130 nM; 2 hours at 37 C
T2 construct: expressed in transfected cells
T2 sequence (P48730 whole entry): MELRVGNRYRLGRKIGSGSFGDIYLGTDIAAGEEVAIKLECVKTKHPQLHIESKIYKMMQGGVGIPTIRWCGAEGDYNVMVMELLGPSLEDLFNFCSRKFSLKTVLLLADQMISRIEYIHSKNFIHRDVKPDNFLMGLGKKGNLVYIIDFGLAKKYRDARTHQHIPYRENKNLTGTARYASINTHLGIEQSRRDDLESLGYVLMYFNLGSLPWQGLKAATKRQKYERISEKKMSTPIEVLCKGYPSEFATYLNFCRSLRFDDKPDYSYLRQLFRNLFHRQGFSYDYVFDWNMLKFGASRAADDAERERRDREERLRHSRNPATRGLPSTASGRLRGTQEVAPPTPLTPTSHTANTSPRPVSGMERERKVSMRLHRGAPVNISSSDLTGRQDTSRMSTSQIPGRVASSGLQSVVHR

T1 sequence (P48730 whole entry): as above

Row | IC50 [1] [nM] | IC50 (human CSNK1D) [nM] | SMILES
1 | 89 | 2850 | COCC1(F)CCc2c(-c3cc(C)nc4[nH]ncc34)c(-c3ccc(F)cn3)nn2C1 (single isomer, unassigned) [Example 305, (*R)-4-[6-Fluoro-2-(5-fluoro-2-pyridyl)-6-(methoxymethyl)-5,7-dihydro-4H-pyrazolo[1,5-a]pyridin-3-yl]-6-methyl-1H-pyrazolo[3,4-b]pyridine]
2 | 116 | 2320 | Cc1cc(-c2c(-c3cncc(F)c3)nn3c2COCC3)c2cn[nH]c2n1 [Example 77, 2-(5-Fluoro-3-pyridyl)-3-(6-methyl-1H-pyrazolo[3,4-b]pyridin-4-yl)-6,7-dihydro-4H-pyrazolo[5,1-c][1,4]oxazine]
3 | 404 | 7800 | CCn1ncc2cc(-c3c(-c4ccc(F)cn4)nn4c3CO[C@@H](C)C4)cnc21 [Example 371, (S)-3-(1-Ethyl-1H-pyrazolo[3,4-b]pyridin-5-yl)-2-(5-fluoropyridin-2-yl)-6-methyl-6,7-dihydro-4H-pyrazolo[5,1-c][1,4]oxazine]
4 | 3 | 21 | CC1(C)Cc2c(-c3c(F)cnc4[nH]ncc34)c(-c3ccc(F)cn3)nn2C1 [Example 236, 5-Fluoro-4-[2-(5-fluoro-2-pyridyl)-5,5-dimethyl-4,6-dihydropyrrolo[1,2-b]pyrazol-3-yl]-1H-pyrazolo[3,4-b]pyridine]
5 | 2 | 7 | [2H]C([2H])([2H])C1(C([2H])([2H])[2H])Cc2c(-c3ccnc4[nH]ncc34)c(-c3ccc(F)cc3)nn2C1 [Example 241, 4-[2-(4-Fluorophenyl)-5,5-bis(methyl-d3)-4,6-dihydropyrrolo[1,2-b]pyrazol-3-yl]-1H-pyrazolo[3,4-b]pyridine]
6 | 4 | 46 | FCC1Cn2nc(-c3ccc(F)cc3)c(-c3ccnc4[nH]ncc34)c2CO1 (single isomer, unassigned) [Example 105, (*R)-(Fluoromethyl)-2-(4-fluorophenyl)-3-(1H-pyrazolo[3,4-b]pyridin-4-yl)-6,7-dihydro-4H-pyrazolo[5,1-c][1,4]oxazine]
7 | 3 | 21 | C[C@@]1(CF)CCc2c(-c3c(F)cnc4[nH]ncc34)c(-c3ccc(F)cn3)nn2C1 (single isomer, unassigned) [Example 292, (*R)-5-Fluoro-4-[6-(fluoromethyl)-2-(5-fluoro-2-pyridyl)-6-methyl-5,7-dihydro-4H-pyrazolo[1,5-a]pyridin-3-yl]-1H-pyrazolo[3,4-b]pyridine]
8 | 3 | 91 | Cc1cc(-c2c(-c3ncc(F)cc3F)nn3c2COC(C)(C)C3)c2cn[nH]c2n1 [Example 167, 2-(3,5-Difluoropyridin-2-yl)-6,6-dimethyl-3-(6-methyl-1H-pyrazolo[3,4-b]pyridin-4-yl)-6,7-dihydro-4H-pyrazolo[5,1-c][1,4]oxazine]
9 | 4 | 49 | FCC1Cn2nc(-c3ccc(F)cc3)c(-c3ccnc4[nH]ncc34)c2CO1 (single isomer, unassigned) [Example 104, (*S)-6-(Fluoromethyl)-2-(4-fluorophenyl)-3-(1H-pyrazolo[3,4-b]pyridin-4-yl)-6,7-dihydro-4H-pyrazolo[5,1-c][1,4]oxazine]
10 | 7 | 64 | Fc1ccc(-c2nn3c(c2-c2c(F)cnc4[nH]ncc24)CC(F)(F)CC3)cc1 [Example 278, 4-[5,5-Difluoro-2-(4-fluorophenyl)-6,7-dihydro-4H-pyrazolo[1,5-a]pyridin-3-yl]-5-fluoro-1H-pyrazolo[3,4-b]pyridine]
11 | 2 | 15 | Fc1ccc(-c2nn3c(c2-c2ccnc4[nH]ncc24)OCCC3)cc1 [Example 184, 2-(4-Fluorophenyl)-3-(1H-pyrazolo[3,4-b]pyridin-4-yl)-6,7-dihydro-5H-pyrazolo[5,1-b][1,3]oxazine]
12 | 64 | 228 | CC1(C)Cn2nc(-c3ccc(F)cn3)c(-c3ccn4ncc(N)c4c3)c2CO1 [Example 381, 5-[2-(5-Fluoro-2-pyridyl)-6,6-dimethyl-4,7-dihydropyrazolo[5,1-c][1,4]oxazin-3-yl]pyrazolo[1,5-a]pyridin-3-amine]
